Test results taken from US20190256929A1, “PHARMACODYNAMIC BIOMARKERS FOR PERSONALIZED CANCER CARE USING EPIGENETIC MODIFYING AGENTS” (ORYZON GENOMICS, S.A., priority 2016, published 2019).

Tests used:
[1] = test system: patient derived xenograft (PDX) small cell lung cancer models, ex vivo cultures; experiment: qRT-PCR of PD markers Notch1 and ASCL1 in ex vivo cultures of SCLC patient derived xenograft (PDX) models; assay type: cell-based, human; details: 1 nM, 120 hours
Description: To confirm the results obtained for the panel for small cell lung cancer cell lines, changes in PD markers Notch1 and ASCL1 were evaluated in a panel of patient derived xenograft (PDX) small cell lung cancer models. The initiation and characterization of PDX models LX48, LX108, LX110, LX33 have been described previously (Hann, C. L., et al. 2008, Cancer Research. 68, 2321-2328; Poirier et al. (2013). J. Natl. Cancer Inst. 105, 1059-1065; Leong et al. PLoS One. 2014; 9:e106862). PDX models, FHSC04 and FHSC14 were generated from blood samples obtained from patients with extensive-stage SCLC, following the methodology described by the Dive lab (Hodgkinson et al. 2014 Nat Med August 20(8), 897-903). Ex vivo cultures were treated with 1 nM (trans)-N1-((1R,2S)-2-Phenylcyclopropyl)cyclohexane-1,4-diamine in 96 well plates (10,000 cells/well) for 120 hours. RNA was extracted in TRIzol (Invitrogen) and isolated according to the manufacturer's protocol. cDNA was generated using the iScript synthesis kit (Bio-Rad) according to the manufacturer's protocol. qPCR experiments were run on a Biorad qPCR instrument (CFX384). Data were normalized to GAPDH. FIG. 12 contains the results of the qRT-PCR using the following primers.

[2] = test system: panel of 14 cell lines (small cell lung cancer, non-small-cell lung cancer, acute myelogenic leukemia, acute lymphoblastic T-cell leukemia); experiment: RNA-seq differential gene expression of PD markers in a panel of 14 cell lines; assay type: cell-based, human; details: 5 nM, 6 days
Description: A panel of 14 cell lines was treated with (trans)-N1-((1R,2S)-2-phenylcyclopropyl)cyclohexane-1,4-diamine (5 nM) or control vehicle for 6 days. The panel included eight small cell lung cancer cell lines (COLO 668, DMS 53, NCI-H146, NCI-H187, NCI-H446, NCI-H510A, NCI-H1417, SHP-77), two non-small-cell lung cancer cell lines (CAL-12T, NCI-H441), two acute myelogenic leukemia cell lines (KASUMI, OCI-AML2), and two acute lymphoblastic T-cell leukemia cell lines (JURKAT, SUP-T1).
Each cell line-treatment pair contained two to four biological replicates.
Expression data were obtained from whole transcriptomic RNA sequencing (RNA-seq) by Illumina, Inc. (San Diego, Calif.). The Illumina HiSeq machine generates raw base calls in reads of 50 or 100 bp length, which are subjected to several data analysis steps. The RNA-seq is conducted at 40 to 50 million reads per sample. This number provides relatively high sensitivity to detect low-expressed genes while allowing for cost-effective multiplexing of samples. RNA is prepared by standard kits and RNA libraries by polyA TruSeq Illumina kits. 100 ng of mRNA per cell line is used for each RNA-seq reaction. A number of quality control procedures are applied to the RNA-seq data for each sample. The Illumina HiSeq software reports the total number of clusters (DNA fragments) loaded in each lane, percent passing sequencing quality filters (which identifies errors due to overloading and sequencing chemistry), a phred quality score for each base of each sequence read, overall average phred scores for each sequencing cycle, and overall percent error (based on alignment to the reference genome). For each RNA-seq sample, the percentage of reads that contain mitochondrial and ribosomal RNA was calculated. The FASTQC package was used to provide additional QC metrics (base distribution, sequence duplication, overrepresented sequences, and enriched kmers) and a graphical summary. Raw reads were aligned against the human genome (hg19) using GSNAP and recommended options for RNASeq data. In addition to the genome sequence, GSNAP is given a database of human splice junctions and transcripts based on Ensembl v73. Resulting SAM files are then converted to sorted BAM files using Samtools. Gene expression values are calculated both as RPKM values following (Mortazavi A. et al. (2008) Nature Methods 5:621-628) and as read counts.
Differential gene expression analysis was performed using the DESeq2 package (Love M. I. et al. (2014) Genome Biology 15:550). Read counts from RNA-seq data were analyzed via a multi-factor generalized linear model of the negative binomial family, considering both treatment and the cell line type as factors that explain the changes in gene expression values.
The following filtering process was applied to identify genes that can serve as PD markers in surrogate tissues (skin or blood): • 1. […] The minimal expression level of the gene in normal blood and skin tissues was greater than one read per kilobase per million reads (RPKM, Mortazavi et al.), as obtained from the Genotype-Tissue Experssion (GTEx) project (The GTEx Consortium (2015) Science 348(6235):648-660). • 4. The minimal expression level of the gene in PBMC tissues was greater than 20 fragments per kilobase per million (FPKM; Trapnell C. et al. (2010) Nature Biotechnology 28:511-515) as obtained from the Ohmomo et al. study (Ohmomo H. et al. (2014) PLOS ONE 9(8):1-11). • 5. The gene is a target of LSD1, as determined by chromatin immunoprecipitation (ChIP) assay from the Adamo et al. study, or interacts with the LSD1 gene, as annotated by the BioGRID database (thebiogrid.org).
Additionally, we analyzed differential gene expression for a set of 35 genes which were previously identified as predictive biomarkers of response to LSD1 treatment.
Differentially expressed pathway analysis was done by the MetaBase R Library (Thompson Reuters).

[3] = RNA-seq, median across all cell lines, vs vehicle

N[C@H]1CC[C@H](N[C@@H]2C[C@H]2c2ccccc2)CC1 [RG6016, (trans)-N1-((1R,2S)-2-phenylcyclopropyl)cyclohexane-1,4-diamine]
Regulation of ASCL1 (FIG. 12) [1]: down
Regulation of NOTCH1 (FIG. 12) [1]: up
ASCL1 differential gene expression after treatment (in words) ([2]; RNA-seq): very significantly down-regulated
GRP differential gene expression after treatment (in words) ([2]; RNA-seq): very significantly down-regulated
CNN2 Median Log2 FC [2, 3]: 0.35
DENND5A Median Log2 FC [2, 3]: 0.32
NOTCH1 Median Log2 FC [2, 3]: 0.49
VIM Median Log2 FC [2, 3]: 0.46
ZFP36L1 Median Log2 FC [2, 3]: 0.27
ASCL1 Median Log2 FC ([2]; RNA-seq, vs vehicle): −0.16
GRP Median Log2 FC ([2]; RNA-seq, vs vehicle): −0.26
development NOTCH signaling pathway, differentially expressed pathway analysis ([2]; MetaBase R Library, RNA-seq data): one of the most significantly differentially expressed pathway
